Reference: US20140179681A1, “METHODS AND COMPOSITIONS OF TARGETED DRUG DEVELOPMENT” (priority 2010, published 2014)
Where “and” joins values, the source holds several entries; their conditions need not be identical. Identical values can stand only once. Entries after “also recorded” stand apart in the source; their conditions may differ.

Columns and labels:
EGF binding site = biological target: T1, EGF binding site (Rattus norvegicus, UniProt G3V6K6); experiment: Inhibition of [125I]EGF binding (EGF inhibitor assay, NovaScreen); settings: determined at 25 μM; rat liver membranes; result in words
T1 construct: Receptor source was rat liver membranes; tissue NovaScreen BioSciences; host or cells: rat liver membranes
T1 sequence (G3V6K6 25-1209): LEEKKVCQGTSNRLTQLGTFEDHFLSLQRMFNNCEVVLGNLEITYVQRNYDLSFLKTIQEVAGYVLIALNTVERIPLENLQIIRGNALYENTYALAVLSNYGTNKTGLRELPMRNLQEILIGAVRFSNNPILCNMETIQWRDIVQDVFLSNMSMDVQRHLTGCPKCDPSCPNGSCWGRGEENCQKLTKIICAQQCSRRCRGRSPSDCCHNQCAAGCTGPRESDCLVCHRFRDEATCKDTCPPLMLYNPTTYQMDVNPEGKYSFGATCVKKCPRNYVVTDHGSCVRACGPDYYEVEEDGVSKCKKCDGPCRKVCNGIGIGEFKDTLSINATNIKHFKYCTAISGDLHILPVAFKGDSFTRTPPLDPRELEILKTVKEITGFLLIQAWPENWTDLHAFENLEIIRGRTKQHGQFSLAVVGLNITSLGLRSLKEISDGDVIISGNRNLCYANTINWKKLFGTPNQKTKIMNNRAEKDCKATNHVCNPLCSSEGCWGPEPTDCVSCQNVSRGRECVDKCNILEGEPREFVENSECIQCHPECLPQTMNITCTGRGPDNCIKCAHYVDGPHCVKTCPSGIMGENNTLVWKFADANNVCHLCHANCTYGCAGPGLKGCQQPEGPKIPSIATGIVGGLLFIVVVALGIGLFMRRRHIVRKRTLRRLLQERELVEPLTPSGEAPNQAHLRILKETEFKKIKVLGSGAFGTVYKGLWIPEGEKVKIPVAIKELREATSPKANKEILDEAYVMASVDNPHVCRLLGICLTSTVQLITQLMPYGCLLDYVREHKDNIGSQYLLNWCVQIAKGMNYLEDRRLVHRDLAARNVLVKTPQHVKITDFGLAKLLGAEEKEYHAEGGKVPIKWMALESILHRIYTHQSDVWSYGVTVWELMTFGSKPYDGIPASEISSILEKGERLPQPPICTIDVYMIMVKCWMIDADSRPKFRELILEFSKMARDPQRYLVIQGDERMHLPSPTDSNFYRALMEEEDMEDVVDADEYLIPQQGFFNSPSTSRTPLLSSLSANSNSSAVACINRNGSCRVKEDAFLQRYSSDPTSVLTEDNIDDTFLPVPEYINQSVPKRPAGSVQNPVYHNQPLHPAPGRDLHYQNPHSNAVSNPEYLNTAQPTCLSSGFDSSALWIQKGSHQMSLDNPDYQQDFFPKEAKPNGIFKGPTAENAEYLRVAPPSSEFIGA
Protocol: Identified compounds, representing various pharmacophore models, were tested for ability to inhibit EGFR at 25 μM.
AD4-compounds were identified using pharmacophore models (see Example 3, Example 4) and then were docked with the binding site of EGFR (SEQ ID NO: 1) that is recognized by defined CDRs of cetuximab. The inhibition of epidermal growth factor binding by AD4-compounds was then determined (NovaScreen BioSciences, Hanover, Md.). Inhibition of EGF binding was determined at 25 μM concentration.
Receptor source was rat liver membranes. The radioligand was [^125I]EGF ([…]) at a final ligand concentration of 0.36 nM. A non-specific determinant was used as EGF—[100 nM]. The reference compound and positive control was EGF. Reactions were carried out in 10 mM HEPES (pH 7.4) containing 0.1% BSA at 25° C. for 60 minutes. The reaction was terminated by rapid vacuum filtration onto glass fiber filters. Radioactivity trapped onto the filters was determined and compared to control values to ascertain any interactions of test compounds with the EGF binding site. The EGF inhibitor assays were modified from, for example, Mukku (1984) J. Biol. Chem. 259, 6543-6546; Duh et al. (1990) World J. Surgery 14, 410-418; Lokeshwar et al. (1989) J. Biol. Chem. 264(32), 19318-19326.

[1] = tested on: EGF receptor-mediated cell proliferation; experiment: Combination studies (median effect analysis: IC50, CI, DRI) in cell proliferation assay (MTT assay); settings: for CI @ ED90: Combination Index at 90% inhibition; for DRI @ ED97: Dose Reduction Index
Text: Studies were initiated to evaluate the ability of various compounds disclosed herein to synergize with several compounds known to inhibit the function of the EGF receptor in a cell proliferation assay (MTT assay).

EGFR = biological target: T2, EGFR (Homo sapiens, UniProt P00533); experiment: Titration of known EGFR inhibitors in absence or presence of a fixed concentration of AD4 compound (% inhibition of EGFR); format: cell-based; settings: Tykerb alone or in combination with the compound; result in words
T2 construct: A431 cells (ATCC # CRL-1555) were grown in Dulbecco's Modified Eagle Medium; host or cells: A431
T2 sequence (P00533 25-1210): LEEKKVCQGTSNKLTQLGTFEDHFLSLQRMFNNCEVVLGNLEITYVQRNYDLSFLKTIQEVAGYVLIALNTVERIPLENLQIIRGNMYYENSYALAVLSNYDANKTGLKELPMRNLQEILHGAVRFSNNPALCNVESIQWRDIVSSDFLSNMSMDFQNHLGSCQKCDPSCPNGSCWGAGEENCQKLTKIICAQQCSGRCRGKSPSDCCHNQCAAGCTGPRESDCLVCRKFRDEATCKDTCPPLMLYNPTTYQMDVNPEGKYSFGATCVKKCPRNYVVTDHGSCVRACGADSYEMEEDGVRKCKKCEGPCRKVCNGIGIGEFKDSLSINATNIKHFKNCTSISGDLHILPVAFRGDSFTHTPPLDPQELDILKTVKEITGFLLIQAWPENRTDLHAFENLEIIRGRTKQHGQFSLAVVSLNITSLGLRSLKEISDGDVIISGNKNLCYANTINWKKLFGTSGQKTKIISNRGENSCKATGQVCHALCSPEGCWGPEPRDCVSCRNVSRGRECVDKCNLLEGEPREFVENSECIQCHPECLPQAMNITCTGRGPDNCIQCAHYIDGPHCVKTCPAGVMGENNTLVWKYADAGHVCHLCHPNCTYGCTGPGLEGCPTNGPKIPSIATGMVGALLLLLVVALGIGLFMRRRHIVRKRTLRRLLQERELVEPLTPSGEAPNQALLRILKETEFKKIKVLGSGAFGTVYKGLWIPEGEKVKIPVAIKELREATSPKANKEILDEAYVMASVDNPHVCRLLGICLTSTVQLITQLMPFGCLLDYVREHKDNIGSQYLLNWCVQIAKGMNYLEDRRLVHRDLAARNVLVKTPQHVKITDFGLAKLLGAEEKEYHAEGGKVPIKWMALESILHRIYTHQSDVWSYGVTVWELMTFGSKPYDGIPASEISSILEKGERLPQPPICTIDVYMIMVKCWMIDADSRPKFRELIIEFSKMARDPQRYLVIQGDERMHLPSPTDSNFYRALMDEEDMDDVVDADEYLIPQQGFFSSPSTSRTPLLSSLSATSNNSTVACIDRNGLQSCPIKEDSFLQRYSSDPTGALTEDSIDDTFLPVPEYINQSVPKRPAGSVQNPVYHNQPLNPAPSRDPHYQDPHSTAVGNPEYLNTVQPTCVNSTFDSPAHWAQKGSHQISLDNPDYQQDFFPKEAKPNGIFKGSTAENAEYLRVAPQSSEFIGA

[2] = effect of the test compound on Iressa
[3] = effect of the test compound on Tykerb

Row | SMILES | inhibition of epidermal growth factor binding to its receptor (EGF binding site) | CI @ ED90 ([1]; combination with Iressa) | CI @ ED90 ([1]; combination with Tykerb) | DRI @ ED97 [1, 2] | DRI @ ED97 [1, 3] | also measured
1 | O=C(NC(=S)Nc1ccc(S(=O)(=O)NCCc2ccccc2)cc1)C1CC1 [AD4-1886] | inhibitor of epidermal growth factor binding to its receptor | – | – | – | – | –
2 | Cc1ccc2c(C)nc(Nc3nc(-c4ccccc4)cc(=O)[nH]3)nc2c1 [AD4-10381] | inhibitor of epidermal growth factor binding to its receptor | – | – | – | – | –
3 | Cc1cccc(NC(c2ccc(C(F)(F)F)cc2)c2ccc3cccnc3c2O)n1 (stereo not drawn) [AD4-10628] | – | 0.91 | 0.55 | 105 | 126 | –
4 | Cc1ccc2c(C)nc(Nc3nc(-c4ccccc4C)cc(=O)[nH]3)nc2c1 [AD4-11511] | – | 0.93 | 0.87 | 96 | 84 | DRI (effect of the test compound on Tykerb / Iressa) ([1]; result in words): very high DRI values; also recorded: fairly high DRI; shift in Tykerb's dose-response curve (EGFR): leftward shift (i.e., greater potency)
5 | C#Cc1cccc(Nc2ncnc3cc(OCCOC)c(OCCOC)cc23)c1 [Tarceva, reference compound] | – | – | – | – | – | synergism with Tykerb [1]: did not produce synergistic effects
6 | CS(=O)(=O)CCNCc1ccc(-c2ccc3ncnc(Nc4ccc(OCc5cccc(F)c5)c(Cl)c4)c3c2)o1 [Tykerb, reference compound] | – | – | – | – | – | effect of Tykerb on the test compound (DRI as a function of Fa) [1]: little effect on AD4-10628; IC50 ([1]; read-out: IC50 Tykerb): 0.178 µM and 0.189 µM and 0.307 µM
